Source: patent US6710049B2, “Azole compounds as anti-fungal agents” (Ranbaxy Laboratories Limited, priority 2000, dated 2004)
In brackets after ≈: the same amount, converted by molar mass.

What was measured:
P variotii 22319 [1] = assay: MIC determination (NCCLS broth method); format: cell-based, Paecillomyces variotii
Text: (§1) The in-vitro evaluation of the antifungal activity of the compounds can be performed by determining the minimum inhibitory concentration (MIC) as shown in Table 1 which is the concentration of the test compound in Rosewell Park Memorial Institute (RPMI) 1640 liquid medium buffered with 3-(Morpholino)propanesulphonic acid (MOPS) to pH 7, at which there is significant inhibition of the particular fungi. In practice the National Committee for Clinical Laboratory Standard (NCCLS) M27A document for Candida and Cryptococcus and M38P for Aspergillus was used to determine the MIC against yeast and filamentous fungi with suitable modifications for dermatophytes to other filamentous fungi. Three quality control strains were included each time the MIC were determined and readings recorded only when the Quality Control results fell into the acceptable range. After MIC results had been recorded, 100 μl from each of the well showing no growth was spread over Sabouraud Dextrose Agar (SDA) to determine the minimum fungicidal concentration (MFC) as shown in Table 2.

C albicans A-26 = assay: MIC determination (NCCLS broth method); format: cell-based, Candida albicans; conditions: Candida albicans, A26, read-out: Minimum Inhibitory Concentration (MIC)
Text: as §1

C albicans Y01.19 = assay: MIC determination (NCCLS broth method); format: cell-based, Candida albicans
Text: as §1

A flavus E2 - 1043 = assay: MIC determination (NCCLS broth method); format: cell-based
Text: as §1

A flavus E3 - 1044 = assay: MIC determination (NCCLS broth method); format: cell-based
Text: as §1

A flavus E4 - 1042 = assay: MIC determination (NCCLS broth method); format: cell-based
Text: as §1

A flavus P2 - 1045 = assay: MIC determination (NCCLS broth method); format: cell-based
Text: as §1

A flavus P3 - 1041 = assay: MIC determination (NCCLS broth method); format: cell-based
Text: as §1

A niger E5 - 1047 = assay: MIC determination (NCCLS broth method); format: cell-based
Text: as §1

A niger P1 - 1046 = assay: MIC determination (NCCLS broth method); format: cell-based
Text: as §1

Alternaria 1051 = assay: MIC determination (NCCLS broth method); format: cell-based
Text: as §1

C glabrata 90030 = assay: MIC determination (NCCLS broth method); format: cell-based
Text: as §1

C krusei 6258 = assay: MIC determination (NCCLS broth method); format: cell-based
Text: as §1

C krusei 766.1 = assay: MIC determination (NCCLS broth method); format: cell-based
Text: as §1

C parapsilosis 22019 = assay: MIC determination (NCCLS broth method); format: cell-based
Text: as §1

C tropicalis 750 = assay: MIC determination (NCCLS broth method); format: cell-based
Text: as §1

Fusarium 1050 = assay: MIC determination (NCCLS broth method); format: cell-based
Text: as §1

Fusarium 1827C = assay: MIC determination (NCCLS broth method); format: cell-based
Text: as §1

Fusarium 2960C = assay: MIC determination (NCCLS broth method); format: cell-based
Text: as §1

Mucor (Ceylon) = assay: MIC determination (NCCLS broth method); format: cell-based
Text: as §1

Penicillium 1641 = assay: MIC determination (NCCLS broth method); format: cell-based
Text: as §1

Penicillium 191 = assay: MIC determination (NCCLS broth method); format: cell-based
Text: as §1

Penicillium 2548 = assay: MIC determination (NCCLS broth method); format: cell-based
Text: as §1

Penicillium 3162 = assay: MIC determination (NCCLS broth method); format: cell-based
Text: as §1

Penicillium H - 1048 = assay: MIC determination (NCCLS broth method); format: cell-based
Text: as §1

Penicillium I - 1049 = assay: MIC determination (NCCLS broth method); format: cell-based
Text: as §1

Rhizopus (Ceylon) = assay: MIC determination (NCCLS broth method); format: cell-based
Text: as §1

Rhizopus 1052 = assay: MIC determination (NCCLS broth method); format: cell-based
Text: as §1

A fumigatus 1008 [2] = assay: MIC determination (NCCLS broth method); format: cell-based, Aspergillus fumigatus
Text: as §1

A fumigatus I - 1011 = assay: MIC determination (NCCLS broth method); format: cell-based, Aspergillus fumigatus
Text: as §1

A fumigatus II - 1012 = assay: MIC determination (NCCLS broth method); format: cell-based, Aspergillus fumigatus
Text: as §1

A fumigatus J - 1032 = assay: MIC determination (NCCLS broth method); format: cell-based, Aspergillus fumigatus
Text: as §1

A fumigatus K - 1033 = assay: MIC determination (NCCLS broth method); format: cell-based, Aspergillus fumigatus
Text: as §1

A fumigatus L - 1034 = assay: MIC determination (NCCLS broth method); format: cell-based, Aspergillus fumigatus
Text: as §1

A fumigatus PGI - 1023 = assay: MIC determination (NCCLS broth method); format: cell-based, Aspergillus fumigatus
Text: as §1

A fumigatus SI-1 - 1019 [3] = assay: MIC determination (NCCLS broth method); format: cell-based, Aspergillus fumigatus
Text: as §1

Penicilliuim 2306 = assay: MIC determination (NCCLS broth method); format: cell-based, Penicillium
Text: as §1

P variotii 22319 [4] = assay: MFC determination (subculture on Sabouraud Dextrose Agar); format: cell-based, Paecillomyces variotii
Text: as §1

A fumigatus 1008 [5] = assay: as above; format: cell-based, Aspergillus fumigatus
Text: as §1

A fumigatus SI-1 - 1019 [6] = assay: as above; format: cell-based, Aspergillus fumigatus
Text: as §1

H capsulatum = assay: MIC determination (NCCLS broth method); format: cell-based
Text: as §1

[7] = read-out: Minimum Inhibitory Concentration (MIC)

CCC(C)n1ncn(-c2ccc(N3CCN(c4ccc(OCC5COC(Cn6cncn6)(c6ccc(Cl)cc6Cl)O5)cc4)CC3)cc2)c1=O (centres unmarked) [Itraconazole]
MIC (P variotii 22319 [1]; [7]): 0.016 µg/mL (≈ 0.0227 µM)
MIC (C albicans A-26): 0.016 µg/mL (≈ 0.0227 µM)
MIC (C albicans Y01.19; Candida albicans, read-out: Minimum Inhibitory Concentration (MIC)): 0.25 µg/mL (≈ 0.354 µM)
MIC (A flavus E2 - 1043; [7]): 0.03 µg/mL (≈ 0.0425 µM)
MIC (A flavus E3 - 1044; [7]): 0.03 µg/mL (≈ 0.0425 µM)
MIC (A flavus E4 - 1042; [7]): 0.06 µg/mL (≈ 0.085 µM)
MIC (A flavus P2 - 1045; [7]): 0.06 µg/mL (≈ 0.085 µM)
MIC (A flavus P3 - 1041; [7]): 0.06 µg/mL (≈ 0.085 µM)
MIC (A niger E5 - 1047; [7]): 0.03 µg/mL (≈ 0.0425 µM)
MIC (A niger P1 - 1046; [7]): 0.125 µg/mL (≈ 0.177 µM)
MIC (Alternaria 1051; [7]): 0.125 µg/mL (≈ 0.177 µM)
MIC (C glabrata 90030; [7]): 0.5 µg/mL (≈ 0.709 µM)
MIC (C krusei 6258; [7]): 0.25 µg/mL (≈ 0.354 µM)
MIC (C krusei 766.1; [7]): 0.5 µg/mL (≈ 0.709 µM)
MIC (C parapsilosis 22019; [7]): 0.03 µg/mL (≈ 0.0425 µM)
MIC (C tropicalis 750; [7]): 0.016 µg/mL (≈ 0.0227 µM)
MIC (Fusarium 1050; [7]): 64 µg/mL (≈ 90.7 µM)
MIC (Fusarium 1827C; [7]): 128 µg/mL (≈ 181 µM)
MIC (Fusarium 2960C; [7]): 16 µg/mL (≈ 22.7 µM)
MIC (Mucor (Ceylon); [7]): 0.125 µg/mL (≈ 0.177 µM)
MIC (Penicillium 1641; [7]): 0.25 µg/mL (≈ 0.354 µM)
MIC (Penicillium 191; [7]): 0.06 µg/mL (≈ 0.085 µM)
MIC (Penicillium 2548; [7]): 0.25 µg/mL (≈ 0.354 µM)
MIC (Penicillium 3162; [7]): 0.25 µg/mL (≈ 0.354 µM)
MIC (Penicillium H - 1048; H1048, read-out: Minimum Inhibitory Concentration (MIC)): 16 µg/mL (≈ 22.7 µM)
MIC (Penicillium I - 1049; I1049, read-out: Minimum Inhibitory Concentration (MIC)): 16 µg/mL (≈ 22.7 µM)
MIC (Rhizopus (Ceylon); [7]): 64 µg/mL (≈ 90.7 µM)
MIC (Rhizopus 1052; [7]): 16 µg/mL (≈ 22.7 µM)
MIC (A fumigatus 1008 [2]; Aspergillus fumigatus, read-out: Minimum Inhibitory Concentration (MIC)): 0.06 µg/mL (≈ 0.085 µM)
MIC (A fumigatus I - 1011; Aspergillus fumigatus, I1011, read-out: Minimum Inhibitory Concentration (MIC)): 0.06 µg/mL (≈ 0.085 µM)
MIC (A fumigatus II - 1012; Aspergillus fumigatus, II1012, read-out: Minimum Inhibitory Concentration (MIC)): 0.06 µg/mL (≈ 0.085 µM)
MIC (A fumigatus J - 1032; Aspergillus fumigatus, J1032, read-out: Minimum Inhibitory Concentration (MIC)): 0.03 µg/mL (≈ 0.0425 µM)
MIC (A fumigatus K - 1033; Aspergillus fumigatus, K1033, read-out: Minimum Inhibitory Concentration (MIC)): 0.06 µg/mL (≈ 0.085 µM)
MIC (A fumigatus L - 1034; Aspergillus fumigatus, L1034, read-out: Minimum Inhibitory Concentration (MIC)): 0.06 µg/mL (≈ 0.085 µM)
MIC (A fumigatus PGI - 1023; Aspergillus fumigatus, PGI1023, read-out: Minimum Inhibitory Concentration (MIC)): 0.03 µg/mL (≈ 0.0425 µM)
MIC (A fumigatus SI-1 - 1019 [3]; Aspergillus fumigatus, SI11019, read-out: Minimum Inhibitory Concentration (MIC)): 0.03 µg/mL (≈ 0.0425 µM)
MIC (Penicilliuim 2306; Penicillium, read-out: Minimum Inhibitory Concentration (MIC)): 0.125 µg/mL (≈ 0.177 µM)
MFC (P variotii 22319 [4]; read-out: Minimum Fungicidal Concentration (MFC)): 0.06 µg/mL (≈ 0.085 µM)
MFC (A fumigatus 1008 [5]; Aspergillus fumigatus, read-out: Minimum Fungicidal Concentration (MFC)): 0.06 µg/mL (≈ 0.085 µM)
MFC (A fumigatus SI-1 - 1019 [6]; Aspergillus fumigatus, SI11019, read-out: Minimum Fungicidal Concentration (MFC)): 0.25 µg/mL (≈ 0.354 µM)

C[C@@H](n1ncn(-c2ccc(OCC(F)(F)C(F)F)cc2)c1=O)[C@](O)(Cn1cncn1)c1ccc(F)cc1F [TAK 187, 2-[(1R,2R)-2-(2,4-difluorophenyl)-2-hydroxy-1-methyl-3-(1H-1,2,4-triazol-1-yl)propyl]-4-(2′,2′,3′,3′-tetraflouropropoxyphenyl)-3(2H,4H)-1,2,4-triazolone]
Minimum Inhibitory Concentration (MIC) (P variotii 22319 [1]): 0.25 µg/mL
Minimum Inhibitory Concentration (MIC) (C albicans Y01.19): 2 µg/mL
Minimum Inhibitory Concentration (MIC) (A flavus E2 - 1043): 4 µg/mL
Minimum Inhibitory Concentration (MIC) (A flavus E3 - 1044): 1 µg/mL
Minimum Inhibitory Concentration (MIC) (A flavus E4 - 1042): 4 µg/mL
Minimum Inhibitory Concentration (MIC) (A flavus P2 - 1045): 4 µg/mL
Minimum Inhibitory Concentration (MIC) (A flavus P3 - 1041): 8 µg/mL
Minimum Inhibitory Concentration (MIC) (A niger E5 - 1047): 2 µg/mL
Minimum Inhibitory Concentration (MIC) (A niger P1 - 1046): 0.5 µg/mL
Minimum Inhibitory Concentration (MIC) (Alternaria 1051): 1 µg/mL
Minimum Inhibitory Concentration (MIC) (C glabrata 90030): 0.5 µg/mL
Minimum Inhibitory Concentration (MIC) (C krusei 6258): 2 µg/mL
Minimum Inhibitory Concentration (MIC) (C krusei 766.1): 2 µg/mL
Minimum Inhibitory Concentration (MIC) (C parapsilosis 22019): 0.03 µg/mL
Minimum Inhibitory Concentration (MIC) (C tropicalis 750): 0.125 µg/mL
Minimum Inhibitory Concentration (MIC) (Fusarium 1050): 64 µg/mL
Minimum Inhibitory Concentration (MIC) (Fusarium 1827C): 32 µg/mL
Minimum Inhibitory Concentration (MIC) (Fusarium 2960C): 32 µg/mL
Minimum Inhibitory Concentration (MIC) (H capsulatum): 0.25 µg/mL
Minimum Inhibitory Concentration (MIC) (Mucor (Ceylon)): 8 µg/mL
Minimum Inhibitory Concentration (MIC) (Penicillium 1641): 16 µg/mL
Minimum Inhibitory Concentration (MIC) (Penicillium 191): 16 µg/mL
Minimum Inhibitory Concentration (MIC) (Penicillium 2548): 16 µg/mL
Minimum Inhibitory Concentration (MIC) (Penicillium 3162): 32 µg/mL
Minimum Inhibitory Concentration (MIC) (Penicillium H - 1048): 16 µg/mL
Minimum Inhibitory Concentration (MIC) (Penicillium I - 1049): 16 µg/mL
Minimum Inhibitory Concentration (MIC) (Rhizopus (Ceylon)): 2 µg/mL
Minimum Inhibitory Concentration (MIC) (Rhizopus 1052): 8 µg/mL
Minimum Inhibitory Concentration (MIC) (A fumigatus 1008 [2]): 4 µg/mL
Minimum Inhibitory Concentration (MIC) (A fumigatus I - 1011): 4 µg/mL
Minimum Inhibitory Concentration (MIC) (A fumigatus II - 1012): 8 µg/mL
Minimum Inhibitory Concentration (MIC) (A fumigatus J - 1032): 4 µg/mL
Minimum Inhibitory Concentration (MIC) (A fumigatus K - 1033): 8 µg/mL
Minimum Inhibitory Concentration (MIC) (A fumigatus L - 1034): 4 µg/mL
Minimum Inhibitory Concentration (MIC) (A fumigatus PGI - 1023): 8 µg/mL
Minimum Inhibitory Concentration (MIC) (A fumigatus SI-1 - 1019 [3]): 2 µg/mL
Minimum Inhibitory Concentration (MIC) (Penicilliuim 2306): 8 µg/mL
Minimum Fungicidal Concentration (MFC) (P variotii 22319 [4]): 32 µg/mL
Minimum Fungicidal Concentration (MFC) (A fumigatus 1008 [5]): 8 µg/mL
Minimum Fungicidal Concentration (MFC) (A fumigatus SI-1 - 1019 [6]): 32 µg/mL
